Measured values reported in paper PMC9157191, “The ex vivo pharmacology of HIV-1 antiretrovirals differs between macaques and humans” (iScience, 2022).
Values joined by “and” are separate entries in the source; they are usually repeats but may differ in a detail not shown here. Equal entries are not always repeated.

Tests used:
[1] = Drug concentrations in Rhesus macaque vaginal tissue explants (LC-MS/MS); assay type: in vitro ADME, Rhesus macaque (Macaca mulatta); conditions: for AUC3h–15d / Cmax: Rh. macaque vaginal explants, 3 h exposure; for Cmax: monkey, vaginal tissue explants, read-out: Cmax
[2] = test system: HIV-1BaL; assay: microbe, parasite or virus in culture; assay type: cell-based; conditions: Human colorectal explants
[3] = test system: SIVmac32H M184V; assay type: cell-based, SIV
[4] = test system: SIVmac32H K65RM184V; assay: microbe, parasite or virus in culture; assay type: cell-based; conditions: for p27 AUC3-15: Rhesus macaque colorectal explants
[5] = test system: RT-SHIV; assay: tissue or blood; assay type: cell-based; conditions: for p27 AUC3-15: Rhesus macaque vaginal explants
[6] = test system: HIV-1YU.2 K65RM184V; assay: microbe, parasite or virus in culture; assay type: cell-based; conditions: Human colorectal explants;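 as to p24 AUC3-15: high arm above the IC50 and low arm below the IC50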
[7] = test system: HIV-1YU.2 M184V; assay: microbe, parasite or virus in culture; assay type: cell-based; conditions: Human colorectal explants
[8] = test system: RT-SHIV; assay: tissue or blood; assay type: cell-based; conditions: for p27 AUC3-15: Rhesus macaque colorectal explants
[9] = test system: SIVmac32H; assay: microbe, parasite or virus in culture; assay type: cell-based; conditions: for p27 AUC3-15: Rhesus macaque cervical explants
[10] = test system: SIVmac32H K65RM184V; assay: microbe, parasite or virus in culture; assay type: cell-based; conditions: for p27 AUC3-15: Rhesus macaque cervical explants
[11] = test system: SIVmac32H K65R; assay type: cell-based, SIV
[12] = test system: SIVmac32H K65RM184V; assay: microbe, parasite or virus in culture; assay type: cell-based; conditions: for p27 AUC3-15: Rhesus macaque vaginal explants
[13] = Drug concentrations in Rhesus macaque colorectal tissue explants (LC-MS/MS); assay type: in vitro ADME, Rhesus macaque (Macaca mulatta); conditions: for AUC3h–15d / Cmax: Rh. macaque colorectal explants, 3 h exposure; for Cmax: monkey, colorectal tissue explants, read-out: Cmax
[14] = test system: HIV-1/SIV/SHIV isolates; assay type: cell-based
[15] = Drug concentrations in Rhesus macaque ecto-cervical tissue explants (LC-MS/MS); assay type: in vitro ADME, Rhesus macaque (Macaca mulatta); conditions: for AUC3h–15d / Cmax: Rh. macaque ecto-cervical explants, 3 h exposure; for Cmax: monkey, ecto-cervical tissue explants
[16] = test system: HIV-1YU.2; assay: microbe, parasite or virus in culture; assay type: cell-based; conditions: Human colorectal explants
[17] = Drug concentrations in human ecto-cervical tissue explants (LC-MS/MS); conditions: for AUC3h-15d / Cmax: Human ecto-cervical explants, 3 h exposure; for Cmax: human, ecto-cervical tissue explants
[18] = test system: SIVmac32H; assay: microbe, parasite or virus in culture; assay type: cell-based; conditions: for p27 AUC3-15: Rhesus macaque colorectal explants
[19] = test system: SIVmac32H; assay: microbe, parasite or virus in culture; assay type: cell-based; conditions: for p27 AUC3-15: Rhesus macaque vaginal explants
[20] = Drug concentrations in human colorectal tissue explants (LC-MS/MS); assay type: in vitro ADME; conditions: for AUC3h-15d / Cmax: Human colorectal explants, 3 h exposure; for Cmax: human, colorectal tissue explants, read-out: Cmax
[21] = test system: HIV-1BaL; assay: microbe, parasite or virus in culture; assay type: cell-based; conditions: Human cervical explants
[22] = test system: HIV-1YU.2 K65R; assay: microbe, parasite or virus in culture; assay type: cell-based; conditions: Human colorectal explants
[23] = Comb. gel, High [ ]: TFV 70 µM + MVC […]
[24] = Comb. gel, Low [ ]: TFV 7 µM + MVC […]
[25] = Single gel, High [ ]: TFV 70 µM or MVC […]
[26] = Single gel, Low [ ]: TFV 7 µM or MVC […]
[27] = high concentration: TFV 70 µM, MVC […], or TFV 70 µM + MVC […]
[28] = low concentration: TFV 7 µM, MVC […], or TFV 7 µM + MVC […]
[29] = Human immunodeficiency virus 1, 360 h, day 15
[30] = Simian immunodeficiency virus, in Macaca mulatta, 360 h, NHP colorectal explants, day 15
[31] = Simian immunodeficiency virus, in Macaca mulatta, 360 h, NHP cervical explants, day 15
[32] = Simian immunodeficiency virus, in Macaca mulatta, 360 h, NHP vaginal explants, day 15

Compound: C[C@H](Cn1cnc2c(N)ncnc21)OCP(=O)(O)O [TFV, Tenofovir]
- AUC3h–15d [1, 23]: 10.16 ng·days/mg
- AUC3h–15d [1, 24]: 5.75 ng·days/mg
- AUC3h–15d [1, 25]: 10.25 ng·days/mg
- AUC3h–15d [1, 26]: 4.05 ng·days/mg
- AUC3h-15d fold increase, high versus low concentration gels ([1]; macaque vaginal explants): 2.1 fold
- Cmax [1, 23]: 1350 ng/g
- Cmax [1, 24]: 770 ng/g
- Cmax [1, 25]: 1370 ng/g
- Cmax [1, 26]: 540 ng/g
- p24 AUC3-15 [2, 27]: 0.41 ± 0.17 µgxd/ml
- p24 AUC3-15 [2, 28]: 2.57 ± 1.81 µgxd/ml
- IC50 [2, 29]: 22.2 ± 1.39 µM
- IC50 [3]: 40.2 ± 30.1 µM
- p27 AUC3-15 [4, 27]: 1.38 ± 0.27 µgxd/ml
- p27 AUC3-15 [4, 28]: 1.70 ± 0.32 µgxd/ml
- IC50 [4, 30]: 47.9 ± 24.9 µM
- IC50 ([5]; Macaca mulatta, 360 h, NHP vaginal explants, day 15): 52.1 ± 27.3 µM
- p27 AUC3-15 [5, 27]: 1.28 ± 0.27 µgxd/ml
- p27 AUC3-15 [5, 28]: 1.53 ± 0.29 µgxd/ml
- p24 AUC3-15 [6, 27]: 1.01 ± 0.11 µgxd/ml
- p24 AUC3-15 [6, 28]: 1.88 ± 0.07 µgxd/ml
- IC50 [6, 29]: 36.4 ± 3.83 µM
- p24 AUC3-15 [7, 27]: 0.52 ± 0.02 µgxd/ml
- p24 AUC3-15 [7, 28]: 0.82 ± 0.05 µgxd/ml
- IC50 [7, 29]: 37.9 ± 12.5 µM
- IC50 ([8]; Macaca mulatta, 360 h, NHP colorectal explants, day 15): 30 ± 13.2 µM
- p27 AUC3-15 [8, 27]: 1.45 ± 0.24 µgxd/ml
- p27 AUC3-15 [8, 28]: 4.27 ± 2.75 µgxd/ml
- p27 AUC3-15 [9, 27]: 1.25 ± 0.36 µgxd/ml
- p27 AUC3-15 [9, 28]: 1.46 ± 0.52 µgxd/ml
- IC50 [9, 31]: 52.6 ± 41.5 µM
- p27 AUC3-15 [10, 27]: 1.40 ± 0.30 µgxd/ml
- p27 AUC3-15 [10, 28]: 1.65 ± 0.30 µgxd/ml
- IC50 [10, 31]: 81.3 ± 50.8 µM
- IC50 [11]: 46.6 ± 12.6 µM
- p27 AUC3-15 [11]: 1.43 ± 0.31 µgxd/ml and 1.95 ± 0.54 µgxd/ml
- p27 AUC3-15 [12, 27]: 1.37 ± 0.30 µgxd/ml
- p27 AUC3-15 [12, 28]: 1.61 ± 0.29 µgxd/ml
- IC50 [12, 32]: 77.1 ± 31.5 µM
- exposure (AUC3h-15d) fold change ([13]; NHP colorectal explants versus ecto-cervical): 2.5 fold
- exposure (AUC3h-15d) fold change ([13]; NHP colorectal explants versus vaginal tissues): 4.4 fold
- AUC3h–15d [13, 23]: 66.86 ng·days/mg
- AUC3h–15d [13, 24]: 13.99 ng·days/mg
- AUC3h–15d [13, 25]: 30.64 ng·days/mg
- AUC3h–15d [13, 26]: 4.68 ng·days/mg
- Cmax [13, 23]: 44200 ng/g
- Cmax [13, 24]: 9190 ng/g
- Cmax [13, 25]: 20200 ng/g
- Cmax [13, 26]: 2980 ng/g
- potency against the mutant isolates [14]: reduced
- median (IQR) fold decreased IC50 values for matched isolates ([14]; colorectal tissue compared to female genital tract tissue, NHP and human explants): 1.8 (1.7–2.1) fold
- AUC3h-15d fold increase on combining the two ARVs ([15]; NHP ecto-cervical explants, combination versus single drug): 2.2 fold
- AUC3h–15d [15, 23]: 18.55 ng·days/mg
- AUC3h–15d [15, 24]: 14.11 ng·days/mg
- AUC3h–15d [15, 25]: 9.55 ng·days/mg
- AUC3h–15d [15, 26]: 4.99 ng·days/mg
- Cmax [15, 23]: 2460 ng/g
- Cmax [15, 24]: 1860 ng/g
- Cmax [15, 25]: 1250 ng/g
- Cmax [15, 26]: 660 ng/g
- p24 AUC3-15 [16, 27]: 1.83 ± 0.18 µgxd/ml
- p24 AUC3-15 [16, 28]: 10.73 ± 5.56 µgxd/ml
- IC50 [16, 29]: 28.9 ± 11.8 µM
- AUC3h-15d [17, 23]: 30.61 ng·days/mg
- AUC3h-15d [17, 24]: 4.409 ng·days/mg
- AUC3h-15d [17, 25]: 25.40 ng·days/mg
- AUC3h-15d [17, 26]: 4.05 ng·days/mg
- average exposure (AUC3h-15d) fold change ([17]; human ecto-cervical compared to colorectal explants): 3.7 fold
- AUC3h-15d fold increase, high versus low concentration gels ([17]; human ecto-cervical explants): 6.6 fold
- Cmax fold increase ([17]; human ecto-cervical explants versus macaque tissue): 5.6 fold
- Cmax [17, 23]: 16600 ng/g
- Cmax [17, 24]: 2380 ng/g
- Cmax [17, 25]: 13600 ng/g
- Cmax [17, 26]: 2030 ng/g
- p27 AUC3-15 [18, 27]: 1.23 ± 0.14 µgxd/ml
- p27 AUC3-15 [18, 28]: 4.84 ± 1.77 µgxd/ml
- IC50 [18, 30]: 25.4 ± 5.35 µM
- p27 AUC3-15 [19, 27]: 1.27 ± 0.24 µgxd/ml
- p27 AUC3-15 [19, 28]: 1.44 ± 0.28 µgxd/ml
- IC50 [19, 32]: 56.1 ± 62.9 µM
- AUC3h-15d [20, 23]: 6.37 ng·days/mg
- AUC3h-15d [20, 24]: 1.99 ng·days/mg
- AUC3h-15d [20, 25]: 6.62 ng·days/mg
- AUC3h-15d [20, 26]: 2.47 ng·days/mg
- AUC3h-15d fold increase, high versus low concentration gels ([20]; human colorectal tissue): 2.9 fold
- Cmax [20, 23]: 3670 ng/g
- Cmax [20, 24]: 1170 ng/g
- Cmax [20, 25]: 2920 ng/g
- Cmax [20, 26]: 1320 ng/g
- p24 AUC3-15 [21, 27]: 1.13 ± 0.10 µgxd/ml
- p24 AUC3-15 [21, 28]: 2.55 ± 1.47 µgxd/ml
- IC50 [21, 29]: 41.4 ± 0.57 µM
- p24 AUC3-15 [22, 27]: 0.41 ± 0.03 µgxd/ml
- p24 AUC3-15 [22, 28]: 0.71 ± 0.06 µgxd/ml
- IC50 [22, 29]: 62.4 ± 15.8 µM
